Laboratory results: patent US12059425B2, “Heterocyclic compounds and uses thereof” (Kumquat Biosciences Inc., priority 2022, dated 2024)

Columns and labels:
[1] = target: T1, K-Ras G12S (Homo sapiens, UniProt P01116, G12S); experiment: PPI-HTRF assay, K-Ras G12S / SOS1 interaction; type: biochemical; conditions: read-out: PPI-HTRF-5 nM (K-Ras G12S IC50)
T1 construct: made in house; host or cells: E. coli, e.g. BL21 (DE3)
Procedure, shortened: (§1)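 Compound in DMSO is dispensed first, then GST-K-Ras plus anti-GST-Eu(K), then His-hSOS1 plus anti-6His-XL665. Plates incubate about 10 min or longer before HTRF measurement at 620 and 665 nm. IC50 values are derived from the emission ratio for each K-Ras variant.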

[2] = target: T2, wildtype K-Ras (Homo sapiens, UniProt P01116); experiment: PPI-HTRF assay, wildtype K-Ras / SOS1 interaction; type: biochemical; conditions: HTRF, K-Ras wt; read-out: PPI-HTRF-5 nM (K-Ras wt IC50)
T2 construct: made in house; host or cells: E. coli, e.g. BL21 (DE3)
Procedure, shortened: as §1

[3] = target: T3, K-Ras G12V (Homo sapiens, UniProt P01116, G12V); experiment: PPI-HTRF assay, K-Ras G12V / SOS1 interaction; type: biochemical; conditions: HTRF, K-Ras G12V; read-out: PPI-HTRF-5 nM (K-Ras G12V IC50)
T3 construct: made in house; host or cells: E. coli, e.g. BL21 (DE3)
Procedure, shortened: as §1

[4] = target: T4, K-Ras G12D (Homo sapiens, UniProt P01116, G12D); experiment: PPI-HTRF assay, K-Ras G12D / SOS1 interaction; type: biochemical; conditions: HTRF, K-Ras G12D; read-out: PPI-HTRF-5 nM (K-Ras G12D IC50)
T4 construct: made in house; host or cells: E. coli, e.g. BL21 (DE3)
Procedure, shortened: as §1

[5] = test system: GP2D cells; experiment: Ras cellular assay, cell proliferation GP2D; type: cell-based
Procedure: (§2) For example, this assay can be also used to assess selective growth inhibition of a mutant Ras protein relative to a wildtype, or relative to a different mutant Ras protein.
ASPC-1 (ATCC CRL-1682), Panc-10.05 (ATCC CRL-2547), A427, GP2d cell lines or any other cell lines comprising a G12D mutation can be used to assess Ras cellular signaling in vitro, e.g., in response to a compound described herein. For example, ASPC-1 culture medium is prepared with RPMI-1640 and 10% heat-inactivated FBS. Panc-10.05 culture medium is prepared with RPMI-1640, 10 Units/mL human recombinant insulin, and 10% FBS. A427 cell culture is prepared with RPMI-1640 and 10% heat-inactivated FBS. A CellTiter-Glo (CTG) luminescent based assay (Promega) is used to assess growth of the cells, as a measurement of the ability of the compounds herein to inhibit Ras signaling in the cells. The cells (e.g., 800 per well) are seeded in their respective culture medium in standard tissue culture-treated 384-well format plates (Falcon #08-772-116) or ultra-low attachment surface 384-well format plates (S-Bio #MS-9384UZ). The day after plating, cells are treated with a dilution series (e.g., a 9 point 3-fold dilution series) of the compounds herein (e.g., approximately 40 μL final volume per well). Cell viability can be monitored (e.g., approximately 5 days later) according to the manufacturer's recommended instructions, where the CellTiter-Glo reagent is added (e.g., approximately 10 μL), vigorously mixed, covered, and placed on a plate shaker (e.g., approximately for 20 min) to ensure sufficient cell lysis prior to assessment of luminescent signal. The IC50 values are determined using the four parameter fit. The resulting IC50 value is a measurement of the ability of the test compound to reduce cell growth of Ras-driven cells (e.g., tumor cell lines) in vitro and/or in vivo.

[6] = test system: SW620 cells; experiment: Ras cellular assay, cell proliferation SW620; type: cell-based; conditions: Homo sapiens, SW-620
Excerpt: as §2

[7] = test system: A549 cells; experiment: Ras cellular assay, cell proliferation A549; type: cell-based; conditions: Homo sapiens
Procedure: as §2
A549 (ATCC CRL-185) and LS123 (ATCC CRL-255) cell lines comprise a G12S mutation and can be used to assess Ras cellular signaling in vitro, e.g., in response to treatment with a compound described herein. A549 culture medium is prepared with RPMI-1640 and 10% heat-inactivated FBS. LS123 culture medium is prepared with RPMI-1640 and 10% heat-inactivated FBS. A CellTiter-Glo (CTG) luminescent based assay (Promega) is used to assess growth of the cells, as a measurement of the ability of the compounds herein to inhibit Ras signaling in the cells. The cells (e.g., 800 per well) are seeded in their respective culture medium in standard tissue culture-treated 384-well format plates (Falcon #08-772-116) or ultra-low attachment surface 384-well format plates (S-Bio #MS-9384WZ). The day after plating, cells are treated with a dilution series (e.g., a 10 point, 3-fold dilution series) of the compounds herein (e.g., approximately 40 μL final volume per well). Cell viability can be monitored (e.g., approximately 6 days later) according to the manufacturer's recommended instructions, where CellTiter-Glo reagent is added (e.g., approximately 10 μL), vigorously mixed, covered, and placed on a plate shaker (e.g., approximately for 20 min) to ensure sufficient cell lysis prior to assessment of luminescent signal. The IC50 values are determined using the four parameter fit. The resulting IC50 value is a measurement of the ability of the test compound to reduce cell growth of Ras-driven cells (e.g., tumor cell lines) in vitro and/or in vivo.

T3 sequence (P01116 1-188 isoform P01116-2 G12V): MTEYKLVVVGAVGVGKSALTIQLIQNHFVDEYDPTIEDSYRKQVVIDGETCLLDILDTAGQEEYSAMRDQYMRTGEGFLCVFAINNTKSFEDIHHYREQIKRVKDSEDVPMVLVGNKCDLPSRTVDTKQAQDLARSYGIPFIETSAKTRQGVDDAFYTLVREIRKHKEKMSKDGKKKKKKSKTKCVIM
T4 sequence (P01116 1-188 isoform P01116-2 G12D): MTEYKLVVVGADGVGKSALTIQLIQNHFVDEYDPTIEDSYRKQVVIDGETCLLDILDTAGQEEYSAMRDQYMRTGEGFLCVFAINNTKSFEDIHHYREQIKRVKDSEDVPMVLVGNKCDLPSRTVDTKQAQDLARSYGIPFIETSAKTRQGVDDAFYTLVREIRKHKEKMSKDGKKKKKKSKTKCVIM
T2 sequence (P01116 1-188 isoform P01116-2): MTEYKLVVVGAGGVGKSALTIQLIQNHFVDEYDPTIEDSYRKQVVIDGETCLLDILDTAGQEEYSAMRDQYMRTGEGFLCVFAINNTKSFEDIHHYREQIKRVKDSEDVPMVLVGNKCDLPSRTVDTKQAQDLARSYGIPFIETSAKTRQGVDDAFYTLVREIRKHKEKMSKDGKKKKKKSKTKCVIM
T1 sequence (P01116 1-188 isoform P01116-2 G12S): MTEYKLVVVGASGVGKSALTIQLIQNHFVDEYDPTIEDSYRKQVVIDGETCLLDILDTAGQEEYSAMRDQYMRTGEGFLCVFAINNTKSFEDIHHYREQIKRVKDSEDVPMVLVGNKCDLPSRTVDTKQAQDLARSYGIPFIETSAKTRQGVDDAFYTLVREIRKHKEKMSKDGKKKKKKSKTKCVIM

Row | SMILES | IC50 [1] | IC50 [2] | IC50 [3] | IC50 [4] | IC50 [5] | IC50 [6] | IC50 [7]
1 | N#Cc1c(N)sc2c(F)ccc(-c3c(Cl)c4c5c(nc(OC[C@@]67CCCN6C[C@H](F)C7)nc5c3F)N3CC(F)(F)C[C@@H]3CO4)c12 [compound 176, 2-amino-4-((8aR)-6-chloro-4,10,10-trifluoro-2-(((2R,7aS)-2-fluorotetrahydro-1H-pyrrolizin-7a(5H)-yl)methoxy)-8a,9,10,11-tetrahydro-8H-pyrrolo[2′,1′:3,4][1,4]oxazepino[5,6,7-de]quinazolin-5-yl)-7-fluorobenzo[b]thiophene-3-carbonitrile] | < 5 µM | < 5 µM | < 5 µM | < 5 µM | < 5 µM | < 5 µM | < 5 µM
2 | N#Cc1c(N)sc2c(F)ccc(-c3c(Cl)c4c5c(nc(OC[C@@]67CCCN6C[C@H](F)C7)nc5c3F)N3CCC(C#N)CC3CO4)c12 (single isomer, unassigned) [compound 105] | < 5 µM | < 5 µM | < 5 µM |  |  | < 5 µM | < 5 µM
3 | N#Cc1c(N)sc2c(F)ccc(-c3c(Cl)c4c5c(nc(OC[C@@]67CCCN6C[C@H](F)C7)nc5c3F)N3CCC[C@@H]3CCO4)c12 [compound 143, 2-amino-4-((13aR)-10-chloro-8-fluoro-6-(((2R,7aS)-2-fluorotetrahydro-1H-pyrrolizin-7a(5H)-yl)methoxy)-1,2,3,12,13,13a-hexahydropyrrolo[1′,2′:5,6][1,5]oxazocino [4,3,2-de]quinazolin-9-yl)-7-fluorobenzo[b]thiophene-3-carbonitrile] | < 5 µM | < 5 µM | < 5 µM | < 5 µM |  | < 5 µM | < 5 µM
4 | CN1c2nc(OC[C@@]34CCCN3C[C@H](F)C4)nc3c(F)c(-c4ccc(F)c5sc(N)c(C#N)c45)c(Cl)c(c23)OCC2CCCC21 (stereo partly drawn) [compound 110, 2-amino-4-(6-chloro-4-fluoro-2-(((2R,7aS)-2-fluorotetrahydro-1H-pyrrolizin-7a(5H)-yl)methoxy)-12-methyl-8a,9,10,11,11a,12-hexahydro-8H-cyclopenta[6,7][1,5]oxazocino[4,3,2-de]quinazolin-5-yl)-7-fluorobenzo[b]thiophene-3-carbonitrile] | < 5 µM | < 5 µM | < 5 µM |  | > 5 µM | < 5 µM | > 5 µM
5 | N#CCCN1c2nc(OC[C@@]34CCCN3C[C@H](F)C4)nc3c(F)c(-c4ccc(F)c5sc(N)c(C#N)c45)c(Cl)c(c23)OCC2COCC21 (stereo partly drawn) [compound 197, 2-amino-4-(6-chloro-12-(2-cyanoethyl)-4-fluoro-2-(((2R,7aS)-2-fluorotetrahydro-1H-pyrrolizin-7a(5H)-yl)methoxy)-8a,9,11a,12-tetrahydro-8H,11H-furo[3′,4′:6,7][1,5]oxazocino[4,3,2-de]quinazolin-5-yl)-7-fluorobenzo[b]thiophene-3-carbonitrile] | < 5 µM | < 5 µM | < 5 µM | < 5 µM | < 5 µM | < 5 µM | 
6 | CN1c2nc(OC[C@@]34CCCN3C[C@H](F)C4)nc3c(F)c(-c4ccc(F)c5sc(N)c(C#N)c45)c(Cl)c(c23)OCC2CCC21 (stereo partly drawn) [compound 187, 2-amino-4-(6-chloro-4-fluoro-2-(((2R,7aS)-2-fluorotetrahydro-1H-pyrrolizin-7a(5H)-yl)methoxy)-11-methyl-8,8a,9,10,10a,11-hexahydrocyclobuta[6,7][1,5]oxazocino [4,3,2-de]quinazolin-5-yl)-7-fluorobenzo[b]thiophene-3-carbonitrile] | < 5 µM | < 5 µM | < 5 µM | < 5 µM | < 5 µM | < 5 µM | 
7 | N#CCC1CCN2c3nc(OC[C@@]45CCCN4C[C@H](F)C5)nc4c(F)c(-c5ccc(F)c6sc(N)c(C#N)c56)c(Cl)c(c34)OCC2C1 (single isomer, unassigned) [compound 156] | < 5 µM | < 5 µM | < 5 µM | < 5 µM |  | < 5 µM | < 5 µM
8 | N#Cc1c(N)sc2c(F)ccc(-c3c(Cl)c4c5c(nc(OCC67CCCN6C[C@H](F)C7)nc5c3F)N3CCCCC3CCO4)c12 (single isomer, unassigned) [compound 117] | < 5 µM | < 5 µM | < 5 µM |  |  | < 5 µM | < 5 µM
9 | CN(C)CCN1c2nc(OC[C@@]34CCCN3C[C@H](F)C4)nc3c(F)c(-c4ccc(F)c5sc(N)c(C#N)c45)c(Cl)c(c23)OCC2COCC21 (stereo partly drawn) [compound 106, 2-amino-4-(6-chloro-12-(2-(dimethylamino)ethyl)-4-fluoro-2-(((2R,7aS)-2-fluorotetrahydro-1H-pyrrolizin-7a(5H)-yl)methoxy)-8a,9,11a,12-tetrahydro-8H,11H-furo[3′,4′:6,7][1,5]oxazocino[4,3,2-de]quinazolin-5-yl)-7-fluorobenzo[b]thiophene-3-carbonitrile] | < 5 µM | < 5 µM | < 5 µM | < 5 µM | < 5 µM | < 5 µM | 
10 | N#Cc1c(N)sc2c(F)ccc(-c3c(Cl)c4c5c(nc(OC[C@@]67CCCN6C[C@H](F)C7)nc5c3F)NC3COCC3CO4)c12 (stereo partly drawn) [compound 208, 2-amino-4-(6-chloro-4-fluoro-2-(((2R,7aS)-2-fluorotetrahydro-1H-pyrrolizin-7a(5H)-yl)methoxy)-8a,9,11a,12-tetrahydro-8H,11H-furo[3′,4′:6,7][1,5]oxazocino[4,3,2-de]quinazolin-5-yl)-7-fluorobenzo[b]thiophene-3-carbonitrile] | < 5 µM | < 5 µM | < 5 µM | < 5 µM | < 5 µM | < 5 µM | 
11 | CC1Oc2c(Cl)c(-c3ccc(F)c4sc(N)c(C#N)c34)c(F)c3nc(OC[C@@]45CCCN4C[C@H](F)C5)nc(c23)N(C)C2COCC12 (stereo partly shown) [compound 104] | < 5 µM | < 5 µM | < 5 µM | < 5 µM | < 5 µM | < 5 µM | 
12 | N#Cc1c(N)sc2c(F)ccc(-c3c(Cl)c4c5c(nc(OC[C@@]67CCCN6C[C@H](F)C7)nc5c3F)N3CC5(CCN5C(=O)n5cncn5)CC3CO4)c12 (stereo partly drawn) [compound 131, 2-Amino-4-(10′-chloro-8′-fluoro-6′-(((2R,7aS)-2-fluorotetrahydro-1H-pyrrolizin-7a(5H)-yl)methoxy)-1-(1H-1,2,4-triazole-1-carbonyl)-12′,12a′-dihydro-1′H,3′H-spiro[azetidine-2,2′-pyrrolo[2′,1′:3,4][1,4]oxazepino[5,6,7-de]quinazolin]-9′-yl)-7-fluorobenzo[b]thiophene-3-carbonitrile] | < 5 µM | < 5 µM | < 5 µM |  |  | < 5 µM | < 5 µM
